# Bridges are numbered along the chain shown (N, C = ends). Where no end group is shown, it is not given here.
# Key:
# [1] = Pharmacokinetics after subcutaneous administration in mice (serum amylin by ELISA); format: in vivo
# Method: Swiss male mice (8 weeks old; n = 4 per group) were administrated of free or monoPEGylated human amylin (both at 400 μg peptide / kg body weight) by subcutaneous route. At the indicated time interval, blood was collected with glass capillary tubes from retro-orbital access and the serum was separated. The concentration of amylin in the plasma was evaluated by ELISA (Merck Millipore, cat # EZHA-52K) by following the manufacturer protocol. The sensitivity of the ELISA assay kit for the monoPEGylated human amylin product was similar to the non-conjugated human amylin as inferred from control analytical curves. In case needed, the mice plasma samples were diluted accordingly in order to achieve the desired concentration range of the ELISA kit. Glucagon was evaluated from the same serum samples, by using an ELISA kit (Merck Millipore, Cat # EZGLU-30K) according to instructions of the manufacturer.
# Continuous lines are best fitting of single-exponential decay function to data. b) Modulation of glucagon. […] The raw data can be found in S2 File.
# MCF–7 cells = assay: cAMP production in MCF–7 cells following stimulation with amylin and PEGylated amylin; format: cell-based, human; conditions: for cAMP: 37°C
# Method: The assay was conducted by the CRO Eurofins | Cerep Panlabs, using the cAMP HiRange assay kit (Cisbio, 62AM6PE). According to the company, the assay was performed in 96 well half area plates, in a total reaction volume of 20 μl/well, with a total of 3.000 cells in suspension (after optimization for optimal seeding density and format: adherent or suspension), freshly thawed. Cells were incubated at 37°C in a humidified atmosphere with 5% (v/v) CO2. […] Following the incubation, cells were lysed and the cAMP quantified by using the cAMP HiRange assay kit (Cisbio, 62AM6PE) according to the manufacturer instructions. […] After 60 minutes incubation at room temperature, fluorescence was measured (excitation at 337 nm, emission at 620 vs. 665 nm), and the cAMP concentration was determined by dividing the signal at 665 nm by that at 620 nm and comparing with the cAMP calibration curve. Buffer was used as negative control and the results were corrected accordingly. Results are expressed as mean ± standard error (n = 2) of the resulting cAMP concentrations in nM. EC50 values for the agonist-induced cAMP production was calculated by adjusting data with a logist 4 parameter function (with SigmaPlot, Jandel Sci).
# MCF–7 cells endogenously express human amylin receptor CTR1 and CTR2 [72, 73]. Stimulation of the receptor with amylin results in the production of cAMP (Fig 5).
# [2] = Amylin aggregation by ThT fluorescence, up to 7 days in PBS pH 7.4; format: physicochemical; conditions: PBS pH 7.4, 25°C, followed up to 7 days
# Method: In this case, at the indicated time 160 μL sample were mixed with 40 μL ThT 100 μM. In both cases the thioflavin T fluorescence was measured by setting excitation at 450 nm and emission at 482 nm. […] The aggregation curves were fitted using a 4 parameter logistic function and the t1/2, elongation rate and lag time were estimated as described elsewhere.
# Scale bar = 200 nm. The raw data can be found in S2 File.
# [3] = (unit not given), Swiss male mice, s.c., 400 μg peptide/kg
substance,measurement,setting,value
PEGylated human amylin: human amylin monoconjugated at the N-terminal Lys1 region with 5 kDa methoxyl polyethylene glycol succinimidyl carbonate (mPEGsc5k) (KCNTATCATQRLANFLVHSSNNFGAILSSTNVGSNTY-NH2; disulfide 2-7; also: one mPEG 5 kDa (mPEGsc5k) on a Lys1 amino group),"Half Life (One phase decay, best-fit value)",[1]; [3],2.988
same,"Tau (One phase decay, best-fit value)",[1]; [3],4.311
same,half-life in vivo,"[1]; male, Swiss, mouse, in vivo, sc",2.98 h
same,cAMP,"MCF–7 cells; 1.00E-05 Molar, replicate 1, 30 min",53.95 nM
same,cAMP,"MCF–7 cells; 1.00E-05 Molar, replicate 2, 30 min",47.73 nM
same,cAMP,"MCF–7 cells; 1.00E-06 Molar, replicate 1, 30 min",47.85 nM
same,cAMP,"MCF–7 cells; 1.00E-06 Molar, replicate 2, 30 min",54.26 nM
same,cAMP,"MCF–7 cells; 1.00E-07 Molar, replicate 1, 30 min",38.3 nM
same,cAMP,"MCF–7 cells; 1.00E-07 Molar, replicate 2, 30 min",36.06 nM
same,cAMP,"MCF–7 cells; 1.00E-08 Molar, replicate 1, 30 min",17.13 nM
same,cAMP,"MCF–7 cells; 1.00E-08 Molar, replicate 2, 30 min",22.08 nM
same,cAMP,"MCF–7 cells; 1.00E-09 Molar, replicate 1, 30 min",5.54 nM
same,cAMP,"MCF–7 cells; 1.00E-09 Molar, replicate 2, 30 min",6.29 nM
same,cAMP,"MCF–7 cells; 1.00E-10 Molar, replicate 1, 30 min",3.86 nM
same,cAMP,"MCF–7 cells; 1.00E-10 Molar, replicate 2, 30 min",4.59 nM
same,cAMP,"MCF–7 cells; 1.00E-11 Molar, replicate 1, 30 min",4.14 nM
same,cAMP,"MCF–7 cells; 1.00E-11 Molar, replicate 2, 30 min",3.71 nM
same,cAMP,"MCF–7 cells; 1.00E-12 Molar, replicate 1, 30 min",4.83 nM
same,cAMP,"MCF–7 cells; 1.00E-12 Molar, replicate 2, 30 min",5.61 nM
same,EC50,"MCF–7 cells; 30 min 37°C, HBSS/HEPES pH 7.4, 500 μM IBMX, cAMP HiRange kit, 4 parameter logistic fit, n = 2, done by CRO",0.0308 ± 0.0067 µM
same,changes in ThT fluorescence up to 7 days,[2],only minor changes in ThT fluorescence
